This is an account of results in US11241385B2, “Topical composition and method for treating and preventing atopic dermatitis and infections related to bacteria biofilm” (Johnson & Johnson Consumer Inc., priority 2017, dated 2022).

The test system of test [1] is Staphylococcus aureus biofilms. As to the kind of experiment: Biofilm growth, crystal violet method. The test is classed as cell-based, Staphylococcus Aureus MFP03. To be noted: S. aureus, absorbance 550 nm. As to the method:
1.3.2 Biofilm Growth, Crystal Violet Method
Experiments on biofilm growth were performed according to the protocol disclosed in G. A. O'Toole, Microtiter Dish Biofilm Formation Assay, J Vis Exp. 2011; (47): 2437. The protocol disclosed by G. A. O'Toole teaches the assay on Pseudomonas aeruginosa, it was adapted to Staphylococcus Aureus MFP03 and Staphylococcus Epidermis MFP04.
Two conditions were studied: • The effect of the emulsions on biofilms in formation: the emulsions are added to the medium from the beginning of the bacterial growth. • The effect of emulsions on established biofilms: the emulsions are added to the bacteria after a first 24-hour incubation that allowed the development of the biofilm.
The protocol taught by G. A. O'Toole is as follows:
1. Grow a culture of the wild-type Pseudomonas aeruginosa or mutant strain overnight in a rich medium (i.e. LB)
2. […] For quantitative assays, we typically use 4-8 replicate wells for each treatment. […] Quantifying the Biofilm 1. […] Quantify absorbance in a plate reader at 550 nm using 30% acetic acid in water as the blank. For the conditions of biofilms in formation: emulsions at 10% (w/w) are added to the medium, and after 24 h of incubation, the optical density is measured. […] Optical density is then measured. Results are expressed in percentage of absorbance relative to the control sample, which is the biofilm itself. […]

The subject of test [2] is Staphylococcus Epidermidis biofilms. In words: Biofilm growth inhibition, wells method (inhibition halos). The test is classed as cell-based. To be noted: S. Epidermidis. How it is done: (§1) 1.3.3 Biofilm Growth Inhibition, Wells Method.
(§2) Protocol disclosed by Hui Zhang was adapted as follow: • a—100 μL of a bacterial strains culture (DO580=0.5) is spread on a LB culture plate. • b—5 mm diameter wells are created with a punch in the gel surface of the culture plate. Each well is attributed to one formulation, the same formulation throughout the test. • c—50 μL of tested formulation is injected per well. • d—24 hours incubation at 37° C. • e—Wells are emptied from the formulations. • f—Growth inhibition halos are measured. • g—Repeat from step c to obtain data over several days (8 days in the present case).
(§3) Tests were conducted on biofilms according to the methodology disclosed on paragraph 1.3.3 (Wells). A 10% solution of Triton X-100 (Aldrich) was submitted to the same test, results after 2 days were used as references.
(§4) Inhibition halos were measured and compared to the inhibition halo obtained for the Triton X-100 solution after 2 days. Inhibition halo differences are expressed in %. Over 100% the inhibition is higher than what is observed for Triton at 2 days; under 100% the inhibition is lower than what is observed for Triton at 2 days. Inhibition was measured at 2 days and 8 days.

The test system of test [3] is Staphylococcus aureus biofilms. Described as above. The test is classed as cell-based. To be noted: S. Aureus. How it is done: as §1, §2, §3, §4

As for Triton X-100, in test [1] (after 24 h biofilm growth medium replaced for 4 hours by emulsion), the “Absorbance percentage relative to the control (the biofilm itself), established biofilm” value is listed as 177%. In addition, the “Absorbance percentage relative to the control (the biofilm itself), biofilm in formation” value in test [1] (emulsion at 10% (w/w) in medium from start, 24 h incubation) was found to be 27%. Moreover, the “Growth inhibition % (halo), relative to Triton X-100 at 2 days” value in test [2] (2 days) is 100%; in test [2] (8 days), 231%; in test [3] (2 days) it was 100%; in test [3] (8 days) it was 198.5%.
